Earlier results in patent publication US7879371B2 (priority 2002, dated 2011).
Like-named read-outs stand apart in the source and are kept apart here.

Key:
[1] = system: A. tumefaciens nopaline type strains T37 and C58
[2] = system: A. tumefaciens str. A348 (pSM358) virE::lacZ
[3] = system: A. tumefaciens vir genes, strain A348 (pSM243cd); details: for vir gene induction efficiency versus corresponding phenolic acids: strain A348 (pSM243cd), only above 100 μM
[4] = cultures of strains C58F and T37

SMILES: COc1cc(C=CC(=O)O)cc(OC)c1O (stereo in doubt) [sinapinic acid]
- growth of A. tumefaciens strains [1, 4]: inhibited growth

SMILES: COc1cc(C(C)=O)cc(OC)c1O[C@H]1O[C@@H](C)[C@@H](O)[C@@H](O)[C@@H]1O [Acetosyringonyl beta-L-fucopyranoside]
- vir-inducing activity ([2]; 13 synthetic beta-glycosides compared): most active monoglycoside tested
- toxic effects ([2]; even at high concentrations): devoid of toxic effects

SMILES: COc1cc(C(C)=O)cc(OC)c1O [acetosyringone]
- growth of A. tumefaciens strains [1]: inhibited the growth

SMILES: COc1cc(C=O)cc(OC)c1O[C@@H]1O[C@H](CO)[C@@H](O[C@H]2O[C@H](CO)[C@@H](O)[C@H](O)[C@H]2O)[C@H](O)[C@H]1O [beta-maltoside of syringaldehyde]
- vir-inducing activity versus free phenol ([2]; at high concentrations): higher activity than the free phenol

SMILES: CCNC(=O)/C=C/c1ccc(O)c(OC)c1 [ethylferulamide]
- vir gene induction efficiency versus corresponding phenolic acids [3]: more efficient than the corresponding phenolic acids

SMILES: CCNC(=O)/C=C/c1cc(OC)c(O)c(OC)c1 [ethylsinapamide]
- vir gene induction efficiency versus corresponding phenolic acids [3]: more efficient than the corresponding phenolic acids

SMILES: CCNC(=O)c1cc(OC)c(O)c(OC)c1 [ethylsyringamide]
- vir gene induction activity versus acetosyringone ([3]; concentrations above 1 mM): higher activity than acetosyringone

SMILES: COc1cc(C=O)cc(OC)c1O [syringaldehyde]
- growth of A. tumefaciens strains [1, 4]: inhibited growth
